Test results reported in the supplement of paper PMC11208160.

Assay: recombinant UMI read abundance after kanamycin selection (control-corrected) (log10(CPM+1)); higher = more efficient recombination; extreme values may be limits of the assay; sequences stand for … in AGTGCAGAGAAAATCGGCCAGTTTTCTCTGCCTGCAGTCCGCATGCCGTGGGACCCCTTGGGTTCTAACCTGTTGCCTAGATTTATGCAGCGGACTGCCTTTCTCCCAAAGTGATAAACCGG…AGGTTGGTTTCACT; site = the 11-nt donor
Outline: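 Pooled Escherichia coli screen of donor and donor-binding-loop pairs for the IS621 bridge recombinase. Each pair sits with a 12-nt UMI on a plasmid carrying a promoterless kanamycin gene. The library was co-electroporated with a target plasmid encoding a fixed target and T7-inducible recombinase, then plated with IPTG (0.07 mM) plus kanamycin, or unselected, each in two replicates. Recombinant UMIs were PCR-amplified across the donor–target junction and sequenced. Counts became CPM, averaged over replicates, scaled by control-derived factors and reported as log10(CPM+1).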
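Note: IS621 bridge recombinase in Escherichia coli cells against a fixed T5 target plasmid.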

TAGATAACATGGACCGGTTTTCCCGGTAATCCGTATTTGTG (site TAGATAACTCA)
recombinant UMI read abundance (log10): 1.2

TAGATAGCATGGACCGGTTTTCCCGGTAATCCGTATTTGAA (site TAGATAGCTTT)
recombinant UMI read abundance (log10): 2.07

TAGATAGCATGGACCGGTTTTCCCGGTAATCCGTATTTGAA (site TAGCTAGCTTT)
recombinant UMI read abundance (log10): 0.0111

TAGATAGCATGGACCGGTTTTCCCGGTAATCCGTATTTGAA (site TAGGTAGCTTT)
recombinant UMI read abundance (log10): 0.0819

TAGATAGCATGGACCGGTTTTCCCGGTAATCCGTATTTGAA (site TAGTTAGCTTT)
recombinant UMI read abundance (log10): 0.173

TAGCACGCATGGACCGGTTTTCCCGGTAATCCGTATTTGGG (site AAGCACGCTCC)
recombinant UMI read abundance (log10): 0.0104

TAGCACGCATGGACCGGTTTTCCCGGTAATCCGTATTTGGG (site CAGCACGCTCC)
recombinant UMI read abundance (log10): 0.00759

TAGCACGCATGGACCGGTTTTCCCGGTAATCCGTATTTGGG (site GAGCACGCTCC)
recombinant UMI read abundance (log10): 0.0209

TAGCACGCATGGACCGGTTTTCCCGGTAATCCGTATTTGGG (site TAGCACGCTCC)
recombinant UMI read abundance (log10): 0.0358

TAGCCGTCATGGACCGGTTTTCCCGGTAATCCGTATTTGGT (site TAGCCATCTAC)
recombinant UMI read abundance (log10): 0.764

TAGCCGTCATGGACCGGTTTTCCCGGTAATCCGTATTTGGT (site TAGCCCTCTAC)
recombinant UMI read abundance (log10): 0

TAGCCGTCATGGACCGGTTTTCCCGGTAATCCGTATTTGGT (site TAGCCGTCTAC)
recombinant UMI read abundance (log10): 0.776

TAGCCGTCATGGACCGGTTTTCCCGGTAATCCGTATTTGGT (site TAGCCTTCTAC)
recombinant UMI read abundance (log10): 0.013

TAGCCTTCATGGACCGGTTTTCCCGGTAATCCGTATTTGGA (site TAGCCTTCTAC)
recombinant UMI read abundance (log10): 0.0179

TAGCCTTCATGGACCGGTTTTCCCGGTAATCCGTATTTGGA (site TAGCCTTCTCC)
recombinant UMI read abundance (log10): 0.02

TAGCCTTCATGGACCGGTTTTCCCGGTAATCCGTATTTGGA (site TAGCCTTCTGC)
recombinant UMI read abundance (log10): 0

TAGCCTTCATGGACCGGTTTTCCCGGTAATCCGTATTTGGA (site TAGCCTTCTTC)
recombinant UMI read abundance (log10): 0.00303

TAGCCTTCATGGACCGGTTTTCCCGGTAATCCGTATTTGGG (site TAGCCTTCTAC)
recombinant UMI read abundance (log10): 0

TAGCCTTCATGGACCGGTTTTCCCGGTAATCCGTATTTGGG (site TAGCCTTCTCC)
recombinant UMI read abundance (log10): 0.0175

TAGCCTTCATGGACCGGTTTTCCCGGTAATCCGTATTTGGG (site TAGCCTTCTGC)
recombinant UMI read abundance (log10): 0

TAGCCTTCATGGACCGGTTTTCCCGGTAATCCGTATTTGGG (site TAGCCTTCTTC)
recombinant UMI read abundance (log10): 0.0097

TAGCGAACATGGACCGGTTTTCCCGGTAATCCGTATTTGGA (site TAGCGAACTTC)
recombinant UMI read abundance (log10): 1.05

TAGCGAGCATGGACCGGTTTTCCCGGTAATCCGTATTTGAA (site TAGCAAGCTTT)
recombinant UMI read abundance (log10): 1.3

TAGCGAGCATGGACCGGTTTTCCCGGTAATCCGTATTTGAA (site TAGCCAGCTTT)
recombinant UMI read abundance (log10): 0.0145

TAGCGAGCATGGACCGGTTTTCCCGGTAATCCGTATTTGAA (site TAGCGAGCTTT)
recombinant UMI read abundance (log10): 1.41

TAGCGAGCATGGACCGGTTTTCCCGGTAATCCGTATTTGAA (site TAGCTAGCTTT)
recombinant UMI read abundance (log10): 0.00707

TAGCGAGCATGGACCGGTTTTCCCGGTAATCCGTATTTGTA (site TAGCGAGCTTA)
recombinant UMI read abundance (log10): 1.82

TAGCGGCCATGGACCGGTTTTCCCGGTAATCCGTATTTGAA (site TAGCGGCCTTT)
recombinant UMI read abundance (log10): 0.205

TAGCGTACATGGACCGGTTTTCCCGGTAATCCGTATTTGTA (site TAGCGTACTTA)
recombinant UMI read abundance (log10): 1.2

TAGCTAACATGGACCGGTTTTCCCGGTAATCCGTATTTGAA (site TAGCTAACTTT)
recombinant UMI read abundance (log10): 1.09

TAGCTAACATGGACCGGTTTTCCCGGTAATCCGTATTTGAA (site TAGCTACCTTT)
recombinant UMI read abundance (log10): 0.00585

TAGCTAACATGGACCGGTTTTCCCGGTAATCCGTATTTGAA (site TAGCTAGCTTT)
recombinant UMI read abundance (log10): 0.00737

TAGCTAACATGGACCGGTTTTCCCGGTAATCCGTATTTGAA (site TAGCTATCTTT)
recombinant UMI read abundance (log10): 0.429

TAGCTACCATGGACCGGTTTTCCCGGTAATCCGTATTTGAA (site TAGCTAACTTT)
recombinant UMI read abundance (log10): 0.00682

TAGCTACCATGGACCGGTTTTCCCGGTAATCCGTATTTGAA (site TAGCTACCTTT)
recombinant UMI read abundance (log10): 0.00616

TAGCTACCATGGACCGGTTTTCCCGGTAATCCGTATTTGAA (site TAGCTAGCTTT)
recombinant UMI read abundance (log10): 0.00385

TAGCTACCATGGACCGGTTTTCCCGGTAATCCGTATTTGAA (site TAGCTATCTTT)
recombinant UMI read abundance (log10): 0.784

TAGCTATCATGGACCGGTTTTCCCGGTAATCCGTATTTGAA (site TAGCTAACTTT)
recombinant UMI read abundance (log10): 0.00325

TAGCTATCATGGACCGGTTTTCCCGGTAATCCGTATTTGAA (site TAGCTACCTTT)
recombinant UMI read abundance (log10): 0.0124

TAGCTATCATGGACCGGTTTTCCCGGTAATCCGTATTTGAA (site TAGCTAGCTTT)
recombinant UMI read abundance (log10): 0.00959

TAGCTATCATGGACCGGTTTTCCCGGTAATCCGTATTTGAA (site TAGCTATCTTT)
recombinant UMI read abundance (log10): 2.02

TAGCTCACATGGACCGGTTTTCCCGGTAATCCGTATTTGAT (site AAGCTCACTAT)
recombinant UMI read abundance (log10): 0.00391

TAGCTCACATGGACCGGTTTTCCCGGTAATCCGTATTTGAT (site CAGCTCACTAT)
recombinant UMI read abundance (log10): 0.61

TAGCTCACATGGACCGGTTTTCCCGGTAATCCGTATTTGAT (site GAGCTCACTAT)
recombinant UMI read abundance (log10): 0.0104

TAGCTCACATGGACCGGTTTTCCCGGTAATCCGTATTTGAT (site TAGCTCACTAT)
recombinant UMI read abundance (log10): 1.47

TAGGAATCATGGACCGGTTTTCCCGGTAATCCGTATTTGGG (site TAGGAATCTCA)
recombinant UMI read abundance (log10): 0.407

TAGGAATCATGGACCGGTTTTCCCGGTAATCCGTATTTGGG (site TAGGAATCTCC)
recombinant UMI read abundance (log10): 1.79

TAGGAATCATGGACCGGTTTTCCCGGTAATCCGTATTTGGG (site TAGGAATCTCG)
recombinant UMI read abundance (log10): 0

TAGGAATCATGGACCGGTTTTCCCGGTAATCCGTATTTGGG (site TAGGAATCTCT)
recombinant UMI read abundance (log10): 0.56

TAGGATACATGGACCGGTTTTCCCGGTAATCCGTATTTGCA (site TAGAATACTTG)
recombinant UMI read abundance (log10): 1.71

TAGGATACATGGACCGGTTTTCCCGGTAATCCGTATTTGCA (site TAGCATACTTG)
recombinant UMI read abundance (log10): 0.852

TAGGATACATGGACCGGTTTTCCCGGTAATCCGTATTTGCA (site TAGGATACTTG)
recombinant UMI read abundance (log10): 3.06

TAGGATACATGGACCGGTTTTCCCGGTAATCCGTATTTGCA (site TAGTATACTTG)
recombinant UMI read abundance (log10): 1.44

TAGGATTCATGGACCGGTTTTCCCGGTAATCCGTATTTGCG (site TAGGAATCTCG)
recombinant UMI read abundance (log10): 1.73

TAGGATTCATGGACCGGTTTTCCCGGTAATCCGTATTTGCG (site TAGGACTCTCG)
recombinant UMI read abundance (log10): 1.68

TAGGATTCATGGACCGGTTTTCCCGGTAATCCGTATTTGCG (site TAGGAGTCTCG)
recombinant UMI read abundance (log10): 0.435

TAGGATTCATGGACCGGTTTTCCCGGTAATCCGTATTTGCG (site TAGGATTCTCG)
recombinant UMI read abundance (log10): 2.94

TAGGCAACATGGACCGGTTTTCCCGGTAATCCGTATTTGCA (site TAGGCAACTTG)
recombinant UMI read abundance (log10): 0.0204

TAGGCATCATGGACCGGTTTTCCCGGTAATCCGTATTTGCG (site TAGGAATCTCG)
recombinant UMI read abundance (log10): 0

TAGGCATCATGGACCGGTTTTCCCGGTAATCCGTATTTGCG (site TAGGCATCTCG)
recombinant UMI read abundance (log10): 1.31

TAGGCATCATGGACCGGTTTTCCCGGTAATCCGTATTTGCG (site TAGGGATCTCG)
recombinant UMI read abundance (log10): 0.00568

TAGGCATCATGGACCGGTTTTCCCGGTAATCCGTATTTGCG (site TAGGTATCTCG)
recombinant UMI read abundance (log10): 0.449

TAGGGGACATGGACCGGTTTTCCCGGTAATCCGTATTTGAA (site TAGGGGACTTT)
recombinant UMI read abundance (log10): 1.24

TAGGTAGCATGGACCGGTTTTCCCGGTAATCCGTATTTGAA (site TAGATAGCTTT)
recombinant UMI read abundance (log10): 0.894

TAGGTAGCATGGACCGGTTTTCCCGGTAATCCGTATTTGAA (site TAGCTAGCTTT)
recombinant UMI read abundance (log10): 0.00863

TAGGTAGCATGGACCGGTTTTCCCGGTAATCCGTATTTGAA (site TAGGTAGCTTT)
recombinant UMI read abundance (log10): 1.67

TAGGTAGCATGGACCGGTTTTCCCGGTAATCCGTATTTGAA (site TAGTTAGCTTT)
recombinant UMI read abundance (log10): 0.0108

TAGGTATCATGGACCGGTTTTCCCGGTAATCCGTATTTGCG (site TAGGAATCTCG)
recombinant UMI read abundance (log10): 1.02

TAGGTATCATGGACCGGTTTTCCCGGTAATCCGTATTTGCG (site TAGGCATCTCG)
recombinant UMI read abundance (log10): 1.3

TAGGTATCATGGACCGGTTTTCCCGGTAATCCGTATTTGCG (site TAGGGATCTCG)
recombinant UMI read abundance (log10): 1.7

TAGGTATCATGGACCGGTTTTCCCGGTAATCCGTATTTGCG (site TAGGTATCTCG)
recombinant UMI read abundance (log10): 2.92

TAGGTTGCATGGACCGGTTTTCCCGGTAATCCGTATTTGGC (site TAGGTTGCTGC)
recombinant UMI read abundance (log10): 2.62

TAGTACTCATGGACCGGTTTTCCCGGTAATCCGTATTTGCT (site TAGTACTCTAG)
recombinant UMI read abundance (log10): 2.94

TAGTAGTCATGGACCGGTTTTCCCGGTAATCCGTATTTGGG (site TAGTAGTCTCC)
recombinant UMI read abundance (log10): 0.369

TAGTCGACATGGACCGGTTTTCCCGGTAATCCGTATTTGGG (site AAGTCGACTCC)
recombinant UMI read abundance (log10): 0.0151
